Test results: patent publication US9926297B2, “Bicyclic AZA compounds as muscarinic M1 receptor and/or M4 receptor agonists” (Heptares Therapeutics Limited, priority 2014, dated 2018)

Legend:
[1] = target: human muscarinic M3 receptor (Homo sapiens, UniProt P20309); experiment: Alphascreen Surefire phospho-ERK1/2 functional assay, M3; conditions: for Emax: CHO, read-out: % Emax cf. ACh, M3, CHO cells stably expressing human M3; for EC50: pEC50 M3, CHO cells stably expressing human M3
[2] = target: T1, human muscarinic M4 receptor (Homo sapiens, UniProt P08173); experiment: Alphascreen Surefire phospho-ERK1/2 functional assay, M4; type: cell-based; conditions: for EC50 / % Emax cf. ACh, M4: CHO cells stably expressing human M4; for EC50: phospho-ERK1/2, * = variable results, read-out: pEC50 M4 (converted); for Emax: CHO, read-out: % Emax cf. ACh, M4, CHO cells stably expressing human M4; for Emax / % Emax cf. ACh, M4: relative to ACh
T1 construct: expressed in transfected cells
T1 sequence (P08173 1-479): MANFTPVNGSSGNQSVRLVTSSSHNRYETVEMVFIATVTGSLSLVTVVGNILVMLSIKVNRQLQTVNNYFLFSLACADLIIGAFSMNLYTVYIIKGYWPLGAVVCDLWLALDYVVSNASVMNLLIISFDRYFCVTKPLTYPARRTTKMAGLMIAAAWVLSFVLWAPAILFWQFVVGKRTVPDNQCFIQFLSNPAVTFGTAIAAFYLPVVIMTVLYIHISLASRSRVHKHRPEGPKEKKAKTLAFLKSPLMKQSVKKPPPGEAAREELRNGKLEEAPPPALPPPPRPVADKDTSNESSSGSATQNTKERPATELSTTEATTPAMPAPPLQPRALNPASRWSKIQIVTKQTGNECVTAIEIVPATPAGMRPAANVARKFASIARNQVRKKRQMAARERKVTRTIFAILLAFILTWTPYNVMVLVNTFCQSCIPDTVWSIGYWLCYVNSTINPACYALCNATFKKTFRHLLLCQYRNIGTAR

[3] = target: T2, human muscarinic M1 receptor (Homo sapiens, UniProt P11229); experiment: Alphascreen Surefire phospho-ERK1/2 functional assay, M1; type: cell-based; conditions: for EC50: read-out: pEC50 M1 (converted); for Emax: CHO, read-out: % Emax cf. ACh, M1, CHO cells stably expressing human M1; for Emax / % Emax cf. ACh, M1: relative to ACh
T2 sequence (P11229 1-460): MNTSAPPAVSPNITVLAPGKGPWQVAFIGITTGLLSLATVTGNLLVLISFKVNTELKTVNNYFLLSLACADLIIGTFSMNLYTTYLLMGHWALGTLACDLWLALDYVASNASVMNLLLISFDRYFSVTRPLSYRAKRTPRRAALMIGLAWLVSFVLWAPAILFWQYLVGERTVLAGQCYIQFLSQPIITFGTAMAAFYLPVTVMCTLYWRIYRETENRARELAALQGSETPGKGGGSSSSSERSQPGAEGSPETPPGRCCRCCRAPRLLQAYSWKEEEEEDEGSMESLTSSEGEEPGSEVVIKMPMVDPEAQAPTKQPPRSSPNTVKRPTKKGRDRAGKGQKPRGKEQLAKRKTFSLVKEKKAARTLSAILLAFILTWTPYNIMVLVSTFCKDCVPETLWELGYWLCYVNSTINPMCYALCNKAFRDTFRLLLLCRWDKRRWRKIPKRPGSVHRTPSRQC

[4] = target: T3, human muscarinic M2 receptor (Homo sapiens, UniProt P08172); experiment: Alphascreen Surefire phospho-ERK1/2 functional assay, M2; conditions: for Emax: CHO, read-out: % Emax cf. ACh, M2, CHO cells stably expressing human M2
T3 sequence (P08172 1-466): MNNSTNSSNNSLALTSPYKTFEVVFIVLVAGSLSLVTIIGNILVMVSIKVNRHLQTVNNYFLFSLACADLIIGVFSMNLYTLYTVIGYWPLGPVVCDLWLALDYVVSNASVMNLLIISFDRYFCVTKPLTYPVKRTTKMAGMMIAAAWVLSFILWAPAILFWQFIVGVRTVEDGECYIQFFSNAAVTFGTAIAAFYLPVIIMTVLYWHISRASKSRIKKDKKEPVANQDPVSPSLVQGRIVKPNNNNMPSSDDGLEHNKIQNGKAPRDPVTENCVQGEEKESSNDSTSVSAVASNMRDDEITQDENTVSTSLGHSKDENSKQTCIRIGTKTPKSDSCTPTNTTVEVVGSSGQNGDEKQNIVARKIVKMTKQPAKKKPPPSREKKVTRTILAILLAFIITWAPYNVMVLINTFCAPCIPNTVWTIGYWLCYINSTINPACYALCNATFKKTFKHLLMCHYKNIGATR

[5] = phospho-ERK1/2, * = variable results
[6] = CHO cells stably expressing human M1, phospho-ERK1/2, * = variable results
[7] = CHO cells stably expressing human M1

human muscarinic M3 receptor, sequence (P20309 whole entry): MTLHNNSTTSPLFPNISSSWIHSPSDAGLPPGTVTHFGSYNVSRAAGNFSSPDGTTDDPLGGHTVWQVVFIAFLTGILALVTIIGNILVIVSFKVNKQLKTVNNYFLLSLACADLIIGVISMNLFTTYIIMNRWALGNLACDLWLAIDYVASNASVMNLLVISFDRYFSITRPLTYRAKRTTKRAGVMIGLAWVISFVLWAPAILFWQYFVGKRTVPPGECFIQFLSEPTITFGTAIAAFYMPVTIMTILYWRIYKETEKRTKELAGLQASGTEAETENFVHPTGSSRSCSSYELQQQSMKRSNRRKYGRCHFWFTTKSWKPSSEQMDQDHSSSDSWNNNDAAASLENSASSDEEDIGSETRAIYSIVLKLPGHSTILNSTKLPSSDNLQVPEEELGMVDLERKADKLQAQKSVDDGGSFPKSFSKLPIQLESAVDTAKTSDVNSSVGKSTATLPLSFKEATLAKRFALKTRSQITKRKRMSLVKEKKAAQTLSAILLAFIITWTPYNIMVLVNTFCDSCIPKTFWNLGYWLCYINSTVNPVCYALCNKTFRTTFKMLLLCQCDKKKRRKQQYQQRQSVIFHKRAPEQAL

| Emax ([1]; relative to ACh) | EC50 [1, 5] | EC50 [2] | Emax [2] | EC50 [3, 6] | Emax [3] | EC50 [4] | Emax ([4]; relative to ACh) | pEC50 M3 ([1]; CHO cells stably expressing human M3, phospho-ERK1/2, * = variable results) | % Emax cf. ACh, M3 ([1]; CHO cells stably expressing human M3, relative to ACh) | % Emax cf. ACh, M4 [2] | % Emax cf. ACh, M1 [3, 7] | pEC50 M2 ([4]; CHO cells stably expressing human M2, phospho-ERK1/2, * = variable results) | % Emax cf. ACh, M2 ([4]; CHO cells stably expressing human M2, relative to ACh) | pEC50 M1 [3, 6] | SMILES |
| --- | --- | --- | --- | --- | --- | --- | --- | --- | --- | --- | --- | --- | --- | --- | --- |
| 7% | > 20 µM | 15.8 nM | 91% | > 20000 nM | 43% | > 20 µM | 3% |  |  |  |  |  |  |  | CCOC(=O)N1CCC2(CC(N3CCC(C4CCCN4C(=O)OCC)CC3)C2)C1 (single isomer, unassigned) [2-14 Isomer 2, ethyl 2-{4-[1-(ethoxycarbonyl)pyrrolidin-2-yl]piperidin-1-yl}-6-azaspiro[3.4]octane-6-carboxylate] |
| 18% | > 20 µM | 20 nM | 107% | 126 nM | 98% | > 20 µM | 16% |  |  |  |  |  |  |  | CCOC(=O)N1CCC2(CC(N3CCC([C@@H]4CCCN4c4ccncc4)CC3)C2)C1 (single isomer, unassigned) [2-80 Isomer 2] |
| 4% | > 20 µM | 25.1 nM | 100% | 251 nM | 93% | > 20 µM | 6% |  |  |  |  |  |  |  | CCOC(=O)N1CCC2(CC(N3CCC(c4nc(Cl)c[nH]4)CC3)C2)C1 (single isomer, unassigned) [1-2 Isomer 2, ethyl 2-[4-(4-chloro-1H-imidazol-2-yl)piperidin-1-yl]-6-azaspiro[3.4]octane-6-carboxylate] |
| 14% | > 20 µM | 39.8 nM | 32% | > 20000 nM | 19% | > 20 µM | 7% |  |  |  |  |  |  |  | CCOC(=O)N1CCC2(CC(N3CCC(N4CCSCC4)CC3)C2)C1 (single isomer, unassigned) [4-12 Isomer 2, ethyl 2-[4-(thiomorpholin-4-yl)piperidin-1-yl]-6-azaspiro[3.4]octane-6-carboxylate] |
| 0% | > 20 µM | 25.1 nM | 78% | 251 nM | 102% | 6.31 µM | 32% |  |  |  |  |  |  |  | COC(=O)N1CCC2(CC(N3CCC(c4nccs4)CC3)C2)C1 (single isomer, unassigned) [1-24 Isomer 2, methyl 2-[4-(1,3-thiazol-2-yl)piperidin-1-yl]-6-azaspiro[3.4]octane-6-carboxylate] |
| 3% | > 20 µM | 126 nM | 89% | 1000 nM | 30% | > 20 µM | 0% |  |  |  |  |  |  |  | CCOC(=O)N1CCC2(CC(N3CCC(c4nn(C)cc4C)CC3)C2)C1 (single isomer, unassigned) [1-56 Isomer 2, ethyl 2-[4-(1,4-dimethyl-1H-pyrazol-3-yl)piperidin-1-yl]-6-azaspiro[3.4]octane-6-carboxylate] |
| 1% | > 20 µM | 20 nM | 79% | > 20000 nM | 19% | > 20 µM | 67% |  |  |  |  |  |  |  | CCOC(=O)N1CCC2(CC(N3CCC([C@@H]4CCCN4C(=O)OCCNC)CC3)C2)C1 (single isomer, unassigned) [2-67 Isomer 2] |
| 0% | > 20 µM | 20 nM | 48% | 200 nM | 28% | > 20 µM | 55% |  |  |  |  |  |  |  | CCOC(=O)N1CCC2(CC(N3CCC(N4CCC(F)(F)CC4)CC3)C2)C1 (single isomer, unassigned) [4-14 Isomer 2, ethyl 2-(4,4-difluoro-1,4′-bipiperidin-1′-yl)-6-azaspiro[3.4]octane-6-carboxylate] |
|  |  | 1.26 nM |  | 50.1 nM |  |  |  | < 4.7 | 23% | 134% | 86% | < 4.7 | 8% |  | CCOC(=O)N1CCC2(CC(N3CCC([C@@H]4CCCN4C(=O)NCc4ccccn4)CC3)C2)C1 (single isomer, unassigned) [2-54 Isomer 2] |
| 4% | > 20 µM | 79.4 nM | 56% | > 20000 nM | 8% | > 20 µM | 1% |  |  |  |  |  |  |  | CCOC(=O)N1CCC2(CC(N3CCC([C@H]4CCCN4C(=O)NC)CC3)C2)C1 (single isomer, unassigned) [2-18 Isomer 2] |
| 38% | 0.0631 µM | 63.1 nM | 71% | 1260 nM | 128% | > 20 µM | 57% |  |  |  |  |  |  |  | COC(=O)N1CCC2(CC(N3CCC(c4nccn4C)CC3)C2)C1 (single isomer, unassigned) [1-6 Isomer 2, methyl 2-[4-(1-methyl-1H-imidazol-2-yl)piperidin-1-yl]-6-azaspiro[3.4]octane-6-carboxylate] |
| 13% | > 20 µM | 15.8 nM | 97% | 501 nM | 34% | > 20 µM | 52% |  |  |  |  |  |  |  | CCOC(=O)N1CCC2(CC(N3CCC([C@@H]4CCCN4C(=O)NC4CCC4)CC3)C2)C1 (single isomer, unassigned) [2-30 Isomer 2] |
| 12% | > 20 µM | 25.1 nM |  |  |  | > 20 µM | 22% |  |  | 52% | 7% |  |  | < 4.7 | CCOC(=O)N1CCC2(CC(N3CCC([C@@H]4CCCN4C(=O)N(C)CC(F)(F)F)CC3)C2)C1 (single isomer, unassigned) [2-55 Isomer 2] |
| 20% | > 20 µM | 15.8 nM | 106% | 158 nM | 102% | > 20 µM | 15% |  |  |  |  |  |  |  | CCOC(=O)N1CCC2(CC(N3CCC(c4nccn4CC#N)CC3)C2)C1 (single isomer, unassigned) [1-52 Isomer 2, ethyl 2-{4-[1-(cyanomethyl)-1H-imidazol-2-yl]piperidin-1-yl}-6-azaspiro[3.4]octane-6-carboxylate] |
| 3% | > 20 µM | 31.6 nM |  | 1580 nM |  | > 20 µM | 1% |  |  | 111% | 93% |  |  |  | CCOC(=O)N1CCC2(CC(N3CCC([C@@H]4CCCN4CCC(F)(F)F)CC3)C2)C1 (single isomer, unassigned) [2-70 Isomer 2] |
| 2% | > 20 µM | 20 nM | 81% | 126 nM | 94% | > 20 µM | 19% |  |  |  |  |  |  |  | CCOC(=O)N1CCC2(CC(N3CCC(c4nc(Cl)c(Cl)[nH]4)CC3)C2)C1 (single isomer, unassigned) [1-5 Isomer 2, ethyl 2-[4-(4,5-dichloro-1H-imidazol-2-yl)piperidin-1-yl]-6-azaspiro[3.4]octane-6-carboxylate] |
